Key:
[1] = target: Human immunodeficiency virus type 1 protease (Human immunodeficiency virus 1, UniProt Q72874); experiment: Inhibitory activity if the compound was determined against HIV protease
[2] = (§1) Effective concentration required to inhibit HIV replication in peripheral blood mononuclear cells (PBL); type: functional, Homo sapiens
[3] = as §1; type: functional; conditions: Homo sapiens

Compound	IC50 [1] [µM]	EC50 ([2]; Homo sapiens) [µM]	EC50 [2] [µM]	EC50 [3] [µM]
CC(C)[C@H](NC(=O)[C@H](Cc1cccc2ccccc12)CS(=O)(=O)C(C)(C)C)C(=O)NCP(N)(=O)CNC(=O)[C@@H](NC(=O)[C@H](Cc1cccc2ccccc12)CS(=O)(=O)C(C)(C)C)C(C)C	0.0055	> 10	–	–
CC(C)[C@H](NC(=O)[C@H](Cc1cccc2ccccc12)CS(=O)(=O)C(C)(C)C)C(=O)NCP(=O)(CNC(=O)[C@@H](NC(=O)[C@H](Cc1cccc2ccccc12)CS(=O)(=O)C(C)(C)C)C(C)C)NN	0.0085	> 10	–	–
COP(=O)(CNC(=O)[C@@H](NC(=O)[C@H](Cc1cccc2ccccc12)CS(=O)(=O)C(C)(C)C)C(C)C)CNC(=O)[C@@H](NC(=O)[C@H](Cc1cccc2ccccc12)CS(=O)(=O)C(C)(C)C)C(C)C	0.95	> 10	–	–
CC(C)[C@H](NC(=O)[C@H](Cc1cccc2ccccc12)CS(=O)(=O)C(C)(C)C)C(=O)NCP(=O)(O)CNC(=O)[C@@H](NC(=O)[C@H](Cc1cccc2ccccc12)CS(=O)(=O)C(C)(C)C)C(C)C	0.0011	> 10	–	–
CC(C)[C@H](NC(=O)[C@H](Cc1cccc2ccccc12)CS(=O)(=O)C(C)(C)C)C(=O)N[C@H](Cc1ccccc1)P(=O)(O)[C@@H](Cc1ccccc1)NC(=O)[C@@H](NC(=O)[C@H](Cc1cccc2ccccc12)CS(=O)(=O)C(C)(C)C)C(C)C	0.085	> 10	–	–
CC(C)[C@H](NC(=O)[C@H](Cc1cccc2ccccc12)CS(=O)(=O)C(C)(C)C)C(=O)N[C@H](Cc1ccccc1)P(N)(=O)[C@@H](Cc1ccccc1)NC(=O)[C@@H](NC(=O)[C@H](Cc1cccc2ccccc12)CS(=O)(=O)C(C)(C)C)C(C)C	0.001	–	0.1	–
CC(C)[C@H](NC(=O)[C@H](Cc1cccc2ccccc12)CS(=O)(=O)C(C)(C)C)C(=O)NC(Cc1ccccc1)P(=O)(O)C(Cc1ccccc1)NC(=O)[C@@H](NC(=O)[C@H](Cc1cccc2ccccc12)CS(=O)(=O)C(C)(C)C)C(C)C (single isomer, unassigned)	0.0005	–	–	> 10
CC(C)[C@H](NC(=O)[C@H](Cc1cccc2ccccc12)CS(=O)(=O)C(C)(C)C)C(=O)NC(Cc1ccccc1)P(N)(=O)C(Cc1ccccc1)NC(=O)[C@@H](NC(=O)[C@H](Cc1cccc2ccccc12)CS(=O)(=O)C(C)(C)C)C(C)C (single isomer, unassigned)	0.25	–	> 10	–

Source: ChEMBL document CHEMBL1151027, “Inhibition of human immunodeficiency virus-1 protease by a C2-symmetrical phosphinic acid amide” (Bioorg Med Chem Lett, 1994)
